Laboratory results as given in US7018836B1, “P-TEFb compositions, methods and screening assays” (priority 1996, dated 2006).

Columns and labels:
[1] = tested on: productive elongation (runoff transcripts) by RNA polymerase II in KcN; assay type: biochemical, Drosophila; settings: for IC50: read-out: 50% inhibition point of runoff transcription
[2] = tested on: Drosophila P-TEFb; assay type: biochemical; settings: for inhibition of P-TEFb CTD kinase at higher ATP: 100 μM ATP
Protocol: 0.4 μl of purified RNA polymerase II and various protein samples were mixed in 18 μl of 55 mM HMK. The reaction was then initiated by the addition of 2 μl of a solution containing 2 μCi of [γ-^32P]ATP (ICN) and unlabeled ATP at 10 μM, or only unlabeled ATP at concentrations from 1 to 100 μM or other NTPs or dNTPs at concentrations of 1 to 100 μM. Reactions were incubated for the indicated times at 23° C. and then terminated with SDS loading buffer. Samples were analyzed on a 6–15% SDS polyacrylamide gel which was silver stained, dried and subjected to autoradiography if the assay contained label.

[3] = tested on: DRB-sensitive runoff transcription in HeLa nuclear extract (P-TEFb-like activity); experiment: Pulse-chase transcription in HeLa nuclear extract; assay type: biochemical, human
Protocol: A pulse-chase protocol was used in which the template DNA was preincubated with the extract, 20 mM HEPES, pH 7.6 and 10 mM MgCl2 for 20 min at 30° C. Nucleotides, including [α-^32P]CTP were added to start the pulse; 2 min later, excess cold CTP was added to initiate the chase. Reactions were stopped after the indicated chase times. During the pulse, 10 μl reaction mixtures contained the following: 20 mM HEPES (pH 7.6), 10 mM MgCl2, 600 μM each GTP, UTP and ATP, 5 μCi of [α-^32P]CTP (˜1 μM CTP), 66 mM KCl, 10–40 μg/ml DNA template, and 3 μl of HeLa nuclear extract. For the chase, unlabeled CTP was added to bring the total concentration of CTP to 1.2 mM and the final reaction volume to 12 μl. Reaction mixtures containing 250 mM KCl, were supplemented with KCl at the beginning of the chase. Drosophila P-TEFb was added to the preincubation mixture where indicated. Reactions were stopped by adding 200 μl of stop solution (1% Sarkosyl, 50 mM Tris, pH 8.0, 50 mM EDTA, 100 mM NaCl and 100 μg/ml tRNA). The reaction mixtures were phenol extracted and the nucleic acids were ethanol precipitated, washed with 70% ethanol, dried and analyzed by gel electrophoresis.
For polyacrylamide gel electrophoresis, samples were resuspended in […] of 0.25×TBE (1×TBE contains 89 mM Tris base, 89 mM Boric acid and 2 mM EDTA) and 8 M urea, heated for 3 min at 85° C. and analyzed in 6% acrylamide-8 M urea-1×TBE gels. Denaturing agarose gel electrophoresis was performed by resuspending samples in 50% formamide-2.2 M formaldehyde-1× morpholinepropanesulfonic acid (MOPS) buffer (20 mM MOPS, pH 7.0; 5 mM sodium acetate, 1 mM EDTA) and heating the mixture at 60° C. for 5 min. Samples were resolved in a 2% agarose gel containing 2.2 M formaldehyde and IX MOPS buffer.

[4] = molecular target: T1, human P-TEFb (Homo sapiens, UniProt P50750); experiment: CTD kinase assay with immunoprecipitated human P-TEFb and Drosophila RNA polymerase II as substrate (FIG. 7B); assay type: biochemical; settings: for IC50: immunoprecipitated human P-TEFb, 10 μM ATP, read-out: 50% inhibition point, CTD kinase assay
T1 construct: endogenous in cells; host or cells: HeLa nuclear extract (HNE), immunoprecipitate on anti-PITALRE-CT beads
T1 sequence (P50750 whole entry): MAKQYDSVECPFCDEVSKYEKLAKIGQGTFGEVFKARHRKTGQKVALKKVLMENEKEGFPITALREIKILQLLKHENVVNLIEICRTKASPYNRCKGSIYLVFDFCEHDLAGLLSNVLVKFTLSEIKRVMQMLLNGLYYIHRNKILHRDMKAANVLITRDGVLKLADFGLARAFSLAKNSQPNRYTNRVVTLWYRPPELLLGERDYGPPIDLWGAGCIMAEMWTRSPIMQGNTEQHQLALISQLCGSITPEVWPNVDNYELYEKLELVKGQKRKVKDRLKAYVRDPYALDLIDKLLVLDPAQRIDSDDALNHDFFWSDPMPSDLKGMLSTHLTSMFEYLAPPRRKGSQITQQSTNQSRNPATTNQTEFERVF
T1 sequence (O60563 whole entry partner): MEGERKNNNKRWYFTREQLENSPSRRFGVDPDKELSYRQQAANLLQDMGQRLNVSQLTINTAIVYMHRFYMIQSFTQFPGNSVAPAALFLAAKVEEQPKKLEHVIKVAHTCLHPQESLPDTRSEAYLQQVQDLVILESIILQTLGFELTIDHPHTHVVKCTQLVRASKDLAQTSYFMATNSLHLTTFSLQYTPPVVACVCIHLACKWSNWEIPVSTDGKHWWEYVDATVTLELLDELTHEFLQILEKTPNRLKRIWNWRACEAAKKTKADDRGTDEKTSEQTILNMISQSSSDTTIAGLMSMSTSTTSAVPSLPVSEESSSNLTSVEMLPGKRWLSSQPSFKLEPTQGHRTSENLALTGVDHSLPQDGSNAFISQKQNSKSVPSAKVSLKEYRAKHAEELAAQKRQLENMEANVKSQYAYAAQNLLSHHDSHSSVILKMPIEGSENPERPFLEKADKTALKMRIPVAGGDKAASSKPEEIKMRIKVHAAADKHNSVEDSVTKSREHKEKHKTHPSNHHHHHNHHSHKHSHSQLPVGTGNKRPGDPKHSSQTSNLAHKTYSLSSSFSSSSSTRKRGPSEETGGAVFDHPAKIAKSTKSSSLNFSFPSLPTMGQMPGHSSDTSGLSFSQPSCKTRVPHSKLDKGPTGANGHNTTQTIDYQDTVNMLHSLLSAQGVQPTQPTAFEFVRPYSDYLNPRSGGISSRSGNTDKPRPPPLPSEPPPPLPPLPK
Protocol: For every 50 μl of HNE, 10 μl of protein A beads containing 1 μg of bound IgG was used. After depletion of HNE, the antibody-containing beads were extensively washed with 100 times the bead volume of 20 mM HEPES (pH 7.6), 0.5% NP-40, 1% Triton X-100, and 5 mM DTT, 600 mM or indicated concentration of NaCl, and then washed with 25 times the bead volume of 20 mM HEPES (pH 7.6) and 1 mM DTT. The amounts of the washed beads used for the kinase assays and silver staining were the equivalent of 1 μl and 10 μl of HNE, respectively.
CTD kinase assays were performed in a […] reaction containing 20 mM HEPES (pH7.6), 10 μM ATP, 5 μCi [γ-^32P]ATP, 10 ng Drosophila RNA polymerase II, 5 mM MgCl2, and purified Drosophila P-TEFb or immunoprecipitated human P-TEFb. In the reactions containing DRB it was added to 50 μM unless other indicated amounts were used. The reactions were incubated at 30° C. for 1 hour.

[5] = molecular target: T2, TAK (Homo sapiens, UniProt P50750); experiment: TAK activity assay (GST-Tat pull-down, CTD3 peptide); assay type: biochemical; settings: in a manner similar to P-TEFb
T2 construct: Nuclear extract, cytoplasmic extract, or fractions containing partially purified TAK were incubated with glutathione-Sepharose beads containing GST-Tat fusion proteins; endogenous in cells; host or cells: HeLa cell extract or partially purified HeLa cytoplasmic fraction; GST-Tat made in E. coli DE3 (BL21)
T2 sequence (P50750 whole entry, the tested form may be a part): as the sequence (P50750 whole entry) above
T2 sequence (O60563 whole entry, further chain, the tested form may be a part): as the sequence (O60563 whole entry partner) above
T2 sequence (P04608 1-48, further chain): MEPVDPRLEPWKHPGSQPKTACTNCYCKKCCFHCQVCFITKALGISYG
Protocol: Preparation of Tat fusion proteins and the TAK pull-down assay were conducted as described by Herrmann and Rice (Herrmann and Rice, 1993; 1995) with modifications as described. Nuclear extract, cytoplasmic extract, or fractions containing partially purified TAK were incubated with glutathione-Sepharose beads containing GST-Tat fusion proteins for 1 hour at 4° C. with gentle rocking. DE3 (BL21) bacteria containing the GST-Tat expression vectors were obtained from NIH AIDS Research and Reference Reagent Program. For maximum sensitivity, GST-Tat48Δ was used unless otherwise specified. The beads (30 μl, 50% slurry) were washed 6 to 8 times with 1 ml EBCD buffer (50 mM Tris, pH 8.0, 120 mM NaCl, 0.5% Nonidet P-40, and 5 mM DTT) containing 0.03% SDS, then 2 to 4 times with Tat kinase buffer (TKB/Mg: 50 mM Tris-HCl, pH 7.6, 5 mM DTT, 5 mM MnCl2, and 4 mM MgCl2), and brought to 50 μl with TKB/Mg buffer and kinase assay mix. The final reaction contained 2 μM ATP, 10 μCi y-^32P-ATP (ICN, 3000 Ci/mmole), and 50–100 μM of CTD trimer peptide CTD3 ([…], SEQ ID NO:68). Reactions were incubated at 25° C. for 40 minutes, stopped by boiling in Laemmli sample buffer, and resolved by electrophoresis in 15% polyacrylamide: bis-acrylamide (30%:0.15%) gels.

[6] = tested on: HeLa cells; settings: added to HeLa cells; cited from earlier work

Compound	fraction of runoff generated that was DRB-sensitive [1]	IC50 [1]	inhibition of P-TEFb CTD kinase ([2]; 10 μM ATP, DRB at 10 μM)	sensitivity of CTD kinase activity of P-TEFb ([2]; 20 μM DRB)	inhibition of P-TEFb CTD kinase at higher ATP [2]	DRB concentration at which maximum inhibition occurred [3]	formation of DRB-insensitive processive elongation complexes [3]	fraction of runoff generated that was DRB-sensitive [3]	sensitivity of phosphorylation by beads containing PITALRE ([4]; 50 μM DRB)	IC50 [4]	TAK activity [5]	amount of RNA polymerase IIo [6]	effect on initiation and abortive transcription ([1]; even at concentrations that severely inhibited runoff)	amount of H-8 required relative to DRB to inhibit the kinase to the same level ([2]; 10 μM ATP)	IC50 ([3]; HeLa NE, 2 min pulse/45 sec chase, read-out: 50% inhibition point of appearance of runoff)	ratio of 50% inhibition points (H-8/DRB), CTD kinase assay [4]
OC[C@H]1O[C@@H](n2cnc3cc(Cl)c(Cl)cc32)[C@H](O)[C@@H]1O [DRB, 5,6-dichloro-1-β-D-ribofuranosylbenzimidazole]	greater than 95%	0.7 µM	strongly inhibited	sensitive	less effective	30 µM	did not inhibit	60%	sensitive	0.65 µM	inhibited	rapid decrease	–	–	–	–
CNCCNS(=O)(=O)c1cccc2cnccc12 [H-8]	–	7 µM	–	–	less effective	–	–	–	–	16 µM	inhibited	rapid decrease	unaffected	approximately 10 times	20 µM	25
